Assay results published in patent US20200281194A1, “A Novel Green Micro-Emulsion for Controlling Fungal Wilt Diseases” (priority 2017, published 2020).

Test system: FoL (Fusarium wilt of tomato)
Experiment: Wilt incidence pot study in tomato (AUDPC)
Assay type: in vivo, Fusarium oxysporum
Details: @ 0.1%
Description: For wilt incidence study, seeds, seedlings and soil are treated with above mentioned three concentrations of microemulsion formulation. In brief, soil is autoclaved and artificially inoculated with Fusarium spores (@ 2.6×10^5 spores/g soil). Seeds are treated with microemulsion formulations by the method used for germination study, but herein, seeds are sowed directly into 1 kg diseased pot. For seedling treatment, healthy eight-leaf staged seedlings of tomato are treated with three respective concentrations of microemulsion while in case of soil treatment; soil of pot is treated @ 5 ml per 150 cc soil. Healthy and untreated seedlings are taken as control. Each treatment has 5 replicates and all the pots are kept in the net house in Micro model, IITD for 45 days. Carbendazim (@0.1%) is taken as chemical control. For accessing the disease progression in the tomato plant, following grading system is used. Symptoms like yellowing of leaves, wilting of plant, height and weight of plant are examined and given a grade by comparing with the control having maximum diseases infection.
Area under the disease progress curve (AUDPC) is a method to calculate the percentage inhibition of wilt disease and is calculated as:
AUDPC=Σ[(Ri+1+Ri)/2][ti+1−ti], R=disease rating at the ith observation ti=time (days) since previous ratings at the ith observation, n=total number of observations.

COC(=O)Nc1nc2ccccc2[nH]1 [carbendazim, Carbendazim]
Disease reduction % of FoL (Seedling treatment): 60.02% | Disease reduction % of FoL (Soil treatment): 71.24%
